Experimental data taken from ChEMBL document CHEMBL3407385, “Promiscuous 2-aminothiazoles (PrATs): a frequent hitting scaffold” (J Med Chem, 2015).
Calls of active or inactive are those of the source. The rule behind the calls is not given here.

Legend:
[1] = Binding affinity to oxidoreductase 1 (unknown origin) at 1 mM by HSQC-NMR analysis
[2] = Binding affinity to oxidoreductase 1 (unknown origin) by STD-NMR analysis
[3] = molecular target: T1, SPRY domain-containing SOCS box protein 2 (Homo sapiens) (UniProt Q99619); experiment: Binding affinity to SPSB2 (unknown origin) at 3mM by 19F NMR method
T1 sequence (whole entry): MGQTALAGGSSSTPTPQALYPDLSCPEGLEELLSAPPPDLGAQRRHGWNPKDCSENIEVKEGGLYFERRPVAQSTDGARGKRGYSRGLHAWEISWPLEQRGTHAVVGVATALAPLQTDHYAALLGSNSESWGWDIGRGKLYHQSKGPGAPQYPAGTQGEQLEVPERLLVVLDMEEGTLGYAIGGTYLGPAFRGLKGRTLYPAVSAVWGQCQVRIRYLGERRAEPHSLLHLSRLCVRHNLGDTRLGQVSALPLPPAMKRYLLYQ

[4] = Binding affinity to oxidoreductase 1 (unknown origin) at 1.5 mM by HSQC-NMR analysis

Row | Activity [1] | Activity [2] | Activity [3] | Activity [4] | SMILES
1 | Active |  |  |  | COc1ccc(-c2nc(N)sc2C)cc1
2 | Active | Active | Active |  | Nc1nc(-c2ccccc2)cs1
3 |  |  |  | Active | Nc1nc2cc3c(cc2s1)OCCO3
4 | Active |  |  |  | Cc1sc(N)nc1-c1ccccc1
